In experiment [1] the test system is odor-causing biological growth (mold, mildew) in the machine. In words: early odor-control trials in the TROMM laundry washer, before the standardized procedure. As to conditions: TROMM WM2688WM washer; Example 1: one ounce per load, 2.5 cu ft laundry, warm water. From the text: A TROMM Model # WM2688WM laundry washer made by LG Electronics Inc. was purchased. After a few months the odor problem was discovered. […] Applicant started to investigate why a new, expensive washer had this kind of problem. […] These are organic based materials. They provide a growth medium for mold, mildew and other biological growth. The odor is generated by this biofilm. The biofilm returns between each of the treatments.
Since the primary odor was thought to come from mildew, a well known material, 20 MULE TEAM BORAX® detergent was used as a detergent. The boron contained in the detergent is a toxic material that controls mold and fungus. […] The commercially available detergent contained a small amount of boron along with various other chemicals necessary for laundry cleaning.
One ounce of the borax was added to the machine for each load.
The laundry volume was standardized at a full basket of 2.5 Cu Ft.
All wash cycles were run with warm water.

The test system of a further experiment is biofilm. As to the kind of experiment: standardized test procedure for objectionable odors (whiff test, Pass/Fail) in a High Efficiency laundry washing machine. As to conditions: one ounce of composition per load, 14 days idle, TROMM WM2688WM HE washer, Tide Liquid HE detergent, 2.5 cu ft cotton laundry. The source says:
The residue is a matrix of soap, detergent, cotton or wool fibers, and any other organic matter that was introduced by the dirty laundry. This provides a wide array of substances that can support biological growth. The exact mixture is an uncontrolled variable but it considered to be bounded by the use of one machine in one location. Experimental control also involves a standardized volume of the laundry load and the exclusive use of cotton items in the laundry washed. The detergent portion of the matrix was standardized by using only TIDE® Liquid HE Detergent.
A standardized test procedure was developed for a High Efficiency (HE) laundry washing machine. […]
The test procedure also involved a second growth period after the wash cycle where the damp laundry is allowed to sit idle in the laundry washing machine with the door closed. […] Given the above assumptions, it was reasonable to assume that the performance of the composition would be effectively quantified Personal experience with odor problem:
Experimentation with idle periods ranging from twenty four hours to three weeks verified that the intensity of the odor problem was a function of the biofilm growth in the machine during the idle period of the washing schedule. […] Therefore, it was determined that the criteria for effectiveness would be focused on the first load of the week. […]

Consider 2 compounds from US9157053B1, “Laundry washing machine deodorizer” (priority 2009, dated 2015).

As for `O=C([O-])O.[Na+]` [baking soda], the odor control result in experiment [1] is given as “did not work well”.

Consider “sodium borate pentahydrate [5 mol concentration borax]”, for which the “first load odor control / first load performance” value in the experiment on biofilm is recorded as “did increase the control of first load odors, but it was still erratic”.
